These results are taken from patent publication US20240132431A1, “METHOD FOR ALKYLATING ACIDIC FUNCTIONAL GROUP” (Chugai Seiyaku Kabushiki Kaisha, priority 2021, published 2024).

Molecules are shown by their SMILES. Read-outs that look alike come from different tables or passages of the source.

For series [1] the following is noted: cited from earlier work; for Base/pKBH+ (CH3CN): transcribed from the Aldrich web site for phosphazene bases; for Base/pKBH^+ (CH3CN): pKa of conjugate acid of the base in CH3CN.
The next series concerns the target T1, human Bcl-2 protein (Homo sapiens, UniProt P10415).
T1 construct: purchased Novus Biologicals
The experiment in a line: Binding evaluation of compounds to Bcl-2 by surface plasmon resonance (SPR). How it is done: In order to analyze the binding affinity of the compounds shown in [Table AK-O1] and synthesized in Example 8 to Bcl-2, the surface plasmon resonance method was used. Biacore T200 (GE Healthcare) was used as the apparatus, and HBS (10 mM HEPES-NaOH, 150 mM NaCl, pH 7.4) to which 1 mM DTT, 3 mM EDTA, 0.01% Tween 20, and 4% DMSO had been added was used as the running buffer. The human Bcl-2 protein (Novus Biologicals) was biotinylated using EZ-Link Sulfo-NHS-LC-LC-biotin (Thermofisher scientific) and immobilized on the surface of Sensor Chip SA (GE Healthcare). Thereafter, compound solutions of multiple concentrations and the running buffer (blank) were added to the Bcl-2 immobilized surface to obtain the binding response of the compounds. The measurement was carried out at 15° C.
A general note: In SPR one partner is held on a chip, and binding of the other changes the refractive index at the surface.

In series [2] the target is T2, Bcl-2 protein (Recombinant Human Bcl-2 Protein) (Homo sapiens, UniProt P10415).
T2 construct: purchased Novus NBP2-34889
T2 sequence (P10415 whole entry): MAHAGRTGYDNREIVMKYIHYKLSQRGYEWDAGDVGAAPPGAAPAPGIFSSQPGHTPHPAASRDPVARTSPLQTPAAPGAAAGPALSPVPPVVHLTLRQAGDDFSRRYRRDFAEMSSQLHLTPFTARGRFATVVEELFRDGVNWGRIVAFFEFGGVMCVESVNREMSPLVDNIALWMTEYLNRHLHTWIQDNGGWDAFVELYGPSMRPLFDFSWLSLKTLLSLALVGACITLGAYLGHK
Briefly: Binding evaluation of mixture library compounds to Bcl-2 using AS-MS (affinity selection mass spectrometry). The essentials: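 ASMS Ratio (%) was calculated as (A−C)/B×100, where A is the protein sample after SEC, B the protein-free sample without SEC and C the protein-free sample after SEC. Each compound was at […] in a 1200-member pool with 20 μM Bcl-2, incubated 1 h at 23° C.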

Setting [3] is: Table 3-5-3, from Aldrich web site and Chem. Eur. J. 2021, 27, 4216-4229.
[4] abbreviates: Table 3-5-1, transcribed from Aldrich web site.
Setting [5] is: Table 3-5-2, transcribed from Aldrich web site.

T1 sequence (P10415 whole entry): as above

With `CN(C)P(=NC(C)(C)C)(N=P(N(C)C)(N(C)C)N(C)C)N(C)C` [P2tBu, 1-tert-Butyl-2,2,4,4,4-pentakis(dimethylamino)-2λ^5,4λ^5-catenadi(phosphazene)], the “Base/pKBH+ (CH3CN)” value is listed as “(33.5)” in series [1] (Table 3-1) and “P2tBu (33.5)” in series [1] (Table 3-4).
On to `CCN=P(N=P(N(C)C)(N(C)C)N(C)C)(N(C)C)N(C)C` [P2Et, 1-Ethyl-2,2,4,4,4-pentakis(dimethylamino)-2λ^5,4λ^5-catenadi(phosphazene)], for which the “Base/pKBH+ (CH3CN)” value in series [1] (Table 2-2) is reported as 32.9; in series [1] (Table 3-1), “(32.9)”. The “Base/pKBH^+ (CH3CN)” value in series [1] (Table 3-3, transcribed from Aldrich web site) is “(32.9)”; in series [1] (setting [3]) it was “(32.9)”.
As for `CN(C)P(=NC(C)(C)C)(N(C)C)N(C)C` [P1tBu, tert-Butylimino-tris(dimethylamino)phosphorane], the “Base/pKBH+ (CH3CN)” value in series [1] (Table 2-2) is 26.9; in series [1] (Table 3-4), “P1tBu (26.9)”. The “Base/pKBH^+ (CH3CN)” value in series [1] (setting [4]), in series [1] (setting [5]) and in series [1] (setting [3]) was “(26.9)” throughout.
In the case of `C1CN=C2NCCCN2C1` [TBD, 1,5,7-triazabicyclo[4.4.0]dec-5-ene], the “Base/pKBH^+ (CH3CN)” value in series [1] (setting [3]) is “(26.0)”.
With `CC(C)(C)N=P(N1CCCC1)(N1CCCC1)N1CCCC1` [BTPP, tert-Butylimino-tri(pyrrolidino)phosphorane], the “Base/pKBH^+ (CH3CN)” value in series [1] (setting [4]), in series [1] (setting [5]) and in series [1] (setting [3]) was “(28.4)” in each case.
In the case of `CCN(C(C)C)C(C)C` [DIPEA, N,N-Diisopropylethylamine], the “pKBH+ value in CH3CN” value in series [1] (Example 3-5-3, Aldrich web site and Chem. Eur. J. 2021, 27, 4216-4229) is given as 18.8. In addition, the “Base/pKBH^+ (CH3CN)” value in series [1] (setting [3]) was “(18.8)”.
As for `CN(C)C(=NC(C)(C)C)N(C)C` [BTMG, 2-tert-butyl-1,1,3,3-tetramethylguanidine], the “Base/pKBH^+ (CH3CN)” value in series [1] (setting [3]) was “(23.6)”.
By Kd is commonly meant the free concentration of one partner at which half of the binding sites on the other are occupied at equilibrium, for simple one-to-one binding. Take `CCOc1cncc(-c2ccc(CN3CCN(c4ccc(C(=O)NS(=O)(=O)c5ccc(NCCSc6ccccc6)c([N+](=O)[O-])c5)cc4)CC3)c3ccccc23)c1` [B2Q066-01, 4-[4-[[4-(5-ethoxypyridin-3-yl)naphthalen-1-yl]methyl]piperazin-1-yl]-N-[3-nitro-4-(2-phenylsulfanylethylamino)phenyl]sulfonylbenzamide]: the Kd at human Bcl-2 protein (Biacore T200, biotinylated human Bcl-2 immobilized on Sensor Chip SA, 15° C., compounds found by AS-MS evaluation of synthesized library, read-out: Equilibrium dissociation constant KD) was 950 nM. Besides, in series [2] (AS-MS, mixture library, Bcl-2, replicate n = 1, ASMS Ratio(%)=(A−C)/B×100), the “ASMS ratio (%) n = 1” value is 40.7%. Moreover, the “ASMS ratio (%) n = 2” value in series [2] (AS-MS, mixture library, Bcl-2, replicate n = 2, ASMS Ratio(%)=(A−C)/B×100) turned out to be 36.9%. Moreover, the “ASMS ratio (%)” value in series [2] (first value in parentheses, (A−C)/B×100, 1200-compound mixture, Bcl-2 20 μM) is 40.7%; in series [2] (second value in parentheses, (A−C)/B×100, 1200-compound mixture, Bcl-2 20 μM), 36.9%.
Turning to `CCOc1cncc(-c2ccccc2CN2CCN(c3ccc(C(=O)NS(=O)(=O)c4ccc(NCCSc5ccccc5)c(C(F)(F)F)c4)cc3)CC2)c1` [B2R046-01, 4-[4-[[2-(5-Ethoxypyridin-3-yl)phenyl]methyl]piperazin-1-yl]-N-[4-(2-phenylsulfanylethylamino)-3-(trifluoromethyl)phenyl]sulfonylbenzamide], at human Bcl-2 protein (Biacore T200, 15° C., compounds synthesized before performing library synthesis), the “Equilibrium dissociation constant KD” value is listed as “Bound”. On human Bcl-2 protein (binding to Bcl-2, compounds evaluated before library synthesis, read-out: KD), the Kd was more than 20000 nM. The “ASMS ratio (%)” value in series [2] (n = 1) is −0.2%; in series [2] (n = 2), 0.0%.
